# Reference: ChEMBL document CHEMBL2413072, “Synthesis and in vitro anticancer studies of novel C-2 arylidene congeners of lantadenes” (2013)
# How the values were obtained:
# Format in all cases: functional
# UACC-62 = assay: Growth inhibition of human UACC62 cells assessed as cell growth at 10^-7 M by sulforhodamine B assay; conditions: read-out: Activity
# U-251 [1] = assay: Growth inhibition of human U251 cells assessed as cell growth at 10^-7 M by sulforhodamine B assay; conditions: read-out: Activity
# NCI-H226 = assay: Growth inhibition of human NCI-H226 cells assessed as cell growth at 10^-4 M by sulforhodamine B assay; conditions: read-out: Activity
# T47D = assay: Growth inhibition of human T47D cells assessed as cell growth at 10^-8 M by sulforhodamine B assay; conditions: read-out: Activity
# SF-268 [2] = assay: Growth inhibition of human SF268 cells by sulforhodamine B assay
# SK-MEL-5 = assay: Growth inhibition of human SK-MEL-5 cells assessed as cell growth at 10^-8 M by sulforhodamine B assay; conditions: read-out: Activity
# MDA-MB-435 = assay: Growth inhibition of human MDA-MB-435 cells assessed as cell growth at 10^-7 M by sulforhodamine B assay; conditions: read-out: Activity
# NCI-H23 [3] = assay: Growth inhibition of human NCI-H23 cells assessed as cell growth at 10^-6 M by sulforhodamine B assay; conditions: read-out: Activity
# NCI-H522 = assay: Growth inhibition of human NCI-H522 cells by sulforhodamine B assay
# CCRF-CEM = assay: Growth inhibition of human CCRF-CEM cells by sulforhodamine B assay
# HCT-15 = assay: Growth inhibition of human HCT15 cells assessed as cell growth at 10^-4 M by sulforhodamine B assay; conditions: read-out: Activity
# SR = assay: Growth inhibition of human SR cells assessed as cell growth at 10^-4 M by sulforhodamine B assay; conditions: read-out: Activity
# NCI-H23 [4] = assay: Growth inhibition of human NCI-H23 cells assessed as cell growth at 10^-8 M by sulforhodamine B assay; conditions: read-out: Activity
# SF-268 [5] = assay: Growth inhibition of human SF268 cells assessed as cell growth at 10^-7 M by sulforhodamine B assay; conditions: read-out: Activity
# [6] = Growth inhibition of human NCI-ADR-RES cells assessed as cell growth at 10^-8 M by sulforhodamine B assay; conditions: read-out: Activity
# BT-549 = assay: Growth inhibition of human BT549 cells assessed as cell growth at 10^-6 M by sulforhodamine B assay; conditions: read-out: Activity
# SNB-75 [7] = assay: Growth inhibition of human SNB75 cells assessed as cell growth at 10^-7 M by sulforhodamine B assay; conditions: read-out: Activity
# SNB-75 [8] = assay: Growth inhibition of human SNB75 cells by sulforhodamine B assay
# DU-145 [9] = assay: Growth inhibition of human DU145 cells by sulforhodamine B assay
# NCI-H460 = assay: Growth inhibition of human NCI-H460 cells assessed as cell growth at 10^-6 M by sulforhodamine B assay; conditions: read-out: Activity
# HOP-92 = assay: Growth inhibition of human HOP92 cells by sulforhodamine B assay
# U-251 [10] = assay: Growth inhibition of human U251 cells assessed as cell growth at 10^-6 M by sulforhodamine B assay; conditions: read-out: Activity
# HL-60(TB) [11] = assay: Growth inhibition of human HL-60(TB) cells assessed as cell growth at 10^-4 M by sulforhodamine B assay; conditions: read-out: Activity
# SK-MEL-28 [12] = assay: Growth inhibition of human SK-MEL-28 cells by sulforhodamine B assay
# PC-3 = assay: Growth inhibition of human PC3 cells assessed as cell growth at 10^-4 M by sulforhodamine B assay; conditions: read-out: Activity
# CAKI-1 = assay: Growth inhibition of human CAKI-1 cells assessed as cell growth at 10^-6 M by sulforhodamine B assay; conditions: read-out: Activity
# MCF7 [13] = assay: Growth inhibition of human MCF7 cells assessed as cell growth at 10^-8 M by sulforhodamine B assay; conditions: read-out: Activity
# UACC-257 = assay: Growth inhibition of human UACC257 cells assessed as cell growth at 10^-6 M by sulforhodamine B assay; conditions: read-out: Activity
# HL-60(TB) [14] = assay: Growth inhibition of human HL-60(TB) cells assessed as cell growth at 10^-7 M by sulforhodamine B assay; conditions: read-out: Activity
# [15] = Growth inhibition of human Hs 578T cells by sulforhodamine B assay
# DU-145 [16] = assay: Growth inhibition of human DU145 cells assessed as cell growth at 10^-4 M by sulforhodamine B assay; conditions: read-out: Activity
# OVCAR-8 = assay: Growth inhibition of human OVCAR8 cells assessed as cell growth at 10^-4 M by sulforhodamine B assay; conditions: read-out: Activity
# SN12C = assay: Growth inhibition of human SN12C cells assessed as cell growth at 10^-7 M by sulforhodamine B assay; conditions: read-out: Activity
# HCT-116 [17] = assay: Growth inhibition of human HCT116 cells assessed as cell growth at 10^-7 M by sulforhodamine B assay; conditions: read-out: Activity
# SK-MEL-2 = assay: Growth inhibition of human SK-MEL-2 cells assessed as cell growth at 10^-8 M by sulforhodamine B assay; conditions: read-out: Activity
# MCF7 [18] = assay: Growth inhibition of human MCF7 cells assessed as cell growth at 10^-6 M by sulforhodamine B assay; conditions: read-out: Activity
# SK-MEL-28 [19] = assay: Growth inhibition of human SK-MEL-28 cells assessed as cell growth at 10^-8 M by sulforhodamine B assay; conditions: read-out: Activity
# HCT-116 [20] = assay: Growth inhibition of human HCT116 cells by sulforhodamine B assay
# A549 = assay: Growth inhibition of human A549/ATCC cells assessed as cell growth at 10^-7 M by sulforhodamine B assay; conditions: read-out: Activity
# [21] = read-out: LC50 (the source's name)
# [22] = read-out: pLC50 (the source's name) (converted)
structure (smiles),measurement,setting,value
C/C=C(/C)C(=O)O[C@@H]1CC(C)(C)C[C@H]2C3=CC[C@@H]4[C@@]5(C)CC[C@H](O)C(C)(C)[C@@H]5CC[C@@]4(C)[C@]3(C)CC[C@@]12C(=O)O [Reduced Lantadene A],growth at 0.1 µM,UACC-62,88%
same,growth at 0.1 µM,U-251 [1],90%
same,growth at 100 µM,NCI-H226,-73%
same,growth at 0.01 µM,T47D,101%
same,GI50,SF-268 [2]; read-out: GI50,2.16 µM
same,TGI,SF-268 [2]; read-out: TGI,4.42 µM
same,GI50,SF-268 [2]; read-out: pGI50 (converted),2.14 µM
same,TGI,SF-268 [2]; read-out: pTGI (converted),4.47 µM
same,growth at 0.01 µM,SK-MEL-5,95%
same,growth at 0.1 µM,MDA-MB-435,94%
same,growth at 1 µM,NCI-H23 [3],98%
same,GI50,NCI-H522; read-out: GI50,2.18 µM
same,CC50,NCI-H522; [21],32.4 µM
same,TGI,NCI-H522; read-out: TGI,5.42 µM
same,GI50,NCI-H522; read-out: pGI50 (converted),2.19 µM
same,CC50,NCI-H522; [22],32.4 µM
same,TGI,NCI-H522; read-out: pTGI (converted),5.37 µM
same,GI50,CCRF-CEM; read-out: GI50,2.31 µM
same,CC50,CCRF-CEM; [21],> 100 µM
same,TGI,CCRF-CEM; read-out: TGI,6.52 µM
same,GI50,CCRF-CEM; read-out: pGI50 (converted),2.29 µM
same,CC50,CCRF-CEM; [22],> 100 µM
same,TGI,CCRF-CEM; read-out: pTGI (converted),6.46 µM
same,growth at 100 µM,HCT-15,-64%
same,growth at 100 µM,SR,-13%
same,growth at 0.01 µM,NCI-H23 [4],101%
same,growth at 0.1 µM,SF-268 [5],106%
same,growth at 0.01 µM,[6],102%
same,growth at 1 µM,BT-549,95%
same,growth at 0.1 µM,SNB-75 [7],78%
same,GI50,SNB-75 [8]; read-out: GI50,1.77 µM
same,CC50,SNB-75 [8]; [21],> 100 µM
same,TGI,SNB-75 [8]; read-out: TGI,5.37 µM
same,GI50,SNB-75 [8]; read-out: pGI50 (converted),1.78 µM
same,CC50,SNB-75 [8]; [22],> 100 µM
same,TGI,SNB-75 [8]; read-out: pTGI (converted),5.37 µM
same,GI50,DU-145 [9]; read-out: GI50,2.12 µM
same,TGI,DU-145 [9]; read-out: TGI,4.04 µM
same,GI50,DU-145 [9]; read-out: pGI50 (converted),2.14 µM
same,TGI,DU-145 [9]; read-out: pTGI (converted),4.07 µM
same,growth at 1 µM,NCI-H460,89%
same,GI50,HOP-92; read-out: GI50,1.41 µM
same,CC50,HOP-92; [21],6.21 µM
same,TGI,HOP-92; read-out: TGI,2.96 µM
same,GI50,HOP-92; read-out: pGI50 (converted),1.41 µM
same,CC50,HOP-92; [22],6.17 µM
same,TGI,HOP-92; read-out: pTGI (converted),2.95 µM
same,growth at 1 µM,U-251 [10],83%
same,growth at 100 µM,HL-60(TB) [11],-36%
same,GI50,SK-MEL-28 [12]; read-out: GI50,1.9 µM
same,TGI,SK-MEL-28 [12]; read-out: TGI,4.27 µM
same,GI50,SK-MEL-28 [12]; read-out: pGI50 (converted),1.91 µM
same,TGI,SK-MEL-28 [12]; read-out: pTGI (converted),4.27 µM
same,growth at 100 µM,PC-3,-73%
same,growth at 1 µM,CAKI-1,85%
same,growth at 0.01 µM,MCF7 [13],95%
same,growth at 1 µM,UACC-257,95%
same,growth at 0.1 µM,HL-60(TB) [14],110%
same,GI50,[15]; read-out: GI50,2.13 µM
same,CC50,[15]; [21],> 100 µM
same,TGI,[15]; read-out: TGI,5.21 µM
same,GI50,[15]; read-out: pGI50 (converted),2.14 µM
same,CC50,[15]; [22],> 100 µM
same,TGI,[15]; read-out: pTGI (converted),5.25 µM
same,growth at 100 µM,DU-145 [16],-46%
same,growth at 100 µM,OVCAR-8,-39%
same,growth at 0.1 µM,SN12C,92%
same,growth at 0.1 µM,HCT-116 [17],95%
same,growth at 0.01 µM,SK-MEL-2,107%
same,growth at 1 µM,MCF7 [18],88%
same,growth at 0.01 µM,SK-MEL-28 [19],90%
same,GI50,HCT-116 [20]; read-out: GI50,2.45 µM
same,LC50,HCT-116 [20]; read-out: LC50,65 µM
same,TGI,HCT-116 [20]; read-out: TGI,10.1 µM
same,GI50,HCT-116 [20]; read-out: pGI50 (converted),2.45 µM
same,LC50,HCT-116 [20]; read-out: pLC50 (converted),64.6 µM
same,TGI,HCT-116 [20]; read-out: pTGI (converted),10.2 µM
same,growth at 0.1 µM,A549,90%
